From patent publication US9750719B2, “Tetrazole compounds as calcium channel blockers” (CONVERGENCE PHARMACEUTICALS LIMITED, priority 2010, dated 2017)
Structures can show the parent of a compound that is named as a salt.

Target: T1, human Cav2.2 α (α1B) subunit, along with the human β3 and α2δ1 auxiliary subunits (Homo sapiens, UniProt Q00975)
T1 construct: expressed in transfected cells
Experiment: hCav2.2 assay, IonWorks planar array electrophysiology in stable HEK293 cell line
Type: cell-based
Details: inhibition by 50% of current elicited by the 1st depolarising pulse; HEK293 cells; read-out: tonic pIC50 (converted)
Experimental: Compounds as defined in the first or second aspect may be tested for in vitro biological activity in the hCav2.2 assay in accordance with the following studies:
Stable cell lines expressing the human Cav2.2 α (α1B) subunit, along with the human β3 and α2δ1 auxiliary subunits were created following sequential transfection and selection of human embryonic kidney (HEK293) cells. HEK293 cells were cultured in Dulbecco's modified Eagles media/F12 media (Invitrogen, Cat #041-95750V) containing 10% fetal bovine serum, with added L-glutamine (2 mM; Invitrogen, Cat #25030-024) and non-essential amino acids (5%; Invitrogen, Cat #11140-035). Initially HEK293 cells were transfected with two plasmid vectors for expression of the hCav2.2 α subunit (pCIN5-hCav2.2 which carries a neomycin resistance marker) and the hCav β3 subunit (pCIH-hCav β3 which carries a hygromycin resistance marker). Clonal cell lines were isolated following selection in media supplemented with 0.4 mg ml^−1 Geneticin G418 (Invitrogen, Cat #10131-027) and 0.1 mg ml^−1 hygromycin (Invitrogen, Cat #10687-010). These clonal cell lines were assessed for Cav2.2 α/β3-mediated current expression using the IonWorks planar array electrophysiology technology (described below). A clonal line was identified that gave a reasonable level of functional Cav2.2 α/β3 current expression. This cell line was transfected with a plasmid vector for expression of the human α2δ1 subunit (pCIP-α2δ1 which carries a puromycin resistance marker) and clonal cell lines isolated following selection in media containing 0.62 μg ml^−1 puromycin (Sigma, Cat #P-7255), in addition to 0.4 mg ml^−1 Geneticin G418 and 0.1 mg ml^−1 hygromycin. Several cell lines were identified that gave robust levels of Cav2.2 α/β3/α2δ1-mediated current expression and one of these was selected for compound profiling. Expression of all three subunits within this cell line was continuously maintained by the inclusion of G418 (0.4 mg ml^−1), hygromycin (0.1 mg ml^−1) and puromycin (0.62 μg ml^−1). Cells were maintained at 37° C. in a humidified environment containing 5% CO2 in air. Cells were liberated from the T175 culture flasks for passage and harvesting using TrpLE (Invitrogen, Cat #12604-013).
Cells were grown to 30-60% confluence in T175 flasks and maintained at 30° C. for 24 hrs prior to recording. Cells were lifted by removing the growth media, washing with Ca^2+ free PBS (Invitrogen, Cat #14190-094) and incubating with 3 ml of warmed (37° C.) TrpLE (Invitrogen, Cat #12604-013) for 6 minutes. Lifted cells were suspended in 10 ml of extracellular buffer. Cell suspension was then placed into a 15 ml tube and centrifuged for 2 minutes at 700 rpm. After centrifugation, the supernatant was removed and the cell pellet was resuspended in 4.5 ml of extracellular solution.
Currents were recorded at room temperature (21-23° C.) using the IonWorks planar array electrophysiology technology (Molecular Devices Corp.). Stimulation protocols and data acquisition were carried out using a microcomputer (Dell Pentium 4). In order to determine planar electrode hole resistances (Rp), a 10 mV, 160 ms potential difference was applied across each hole. These measurements were performed before cell addition. After cell addition a seal test was performed prior to antibiotic (amphotericin) circulation to achieve intracellular access. Leak subtraction was conducted in all experiments by applying a 160 ms hyperpolarizing (10 mV) prepulse 200 ms before the test pulses to measure leak conductance. Test pulses stepping from the holding potential (VH) of −90 mV to +10 mV were applied for 20 ms and repeated 10 times at a frequency of 10 Hz. In all experiments, the test pulse protocol was performed in the absence (pre-read) and presence (post-read) of a compound. Pre- and post-reads were separated by a compound addition followed by a 3-3.5 min incubation. […]

T1 sequence (Q00975 whole entry): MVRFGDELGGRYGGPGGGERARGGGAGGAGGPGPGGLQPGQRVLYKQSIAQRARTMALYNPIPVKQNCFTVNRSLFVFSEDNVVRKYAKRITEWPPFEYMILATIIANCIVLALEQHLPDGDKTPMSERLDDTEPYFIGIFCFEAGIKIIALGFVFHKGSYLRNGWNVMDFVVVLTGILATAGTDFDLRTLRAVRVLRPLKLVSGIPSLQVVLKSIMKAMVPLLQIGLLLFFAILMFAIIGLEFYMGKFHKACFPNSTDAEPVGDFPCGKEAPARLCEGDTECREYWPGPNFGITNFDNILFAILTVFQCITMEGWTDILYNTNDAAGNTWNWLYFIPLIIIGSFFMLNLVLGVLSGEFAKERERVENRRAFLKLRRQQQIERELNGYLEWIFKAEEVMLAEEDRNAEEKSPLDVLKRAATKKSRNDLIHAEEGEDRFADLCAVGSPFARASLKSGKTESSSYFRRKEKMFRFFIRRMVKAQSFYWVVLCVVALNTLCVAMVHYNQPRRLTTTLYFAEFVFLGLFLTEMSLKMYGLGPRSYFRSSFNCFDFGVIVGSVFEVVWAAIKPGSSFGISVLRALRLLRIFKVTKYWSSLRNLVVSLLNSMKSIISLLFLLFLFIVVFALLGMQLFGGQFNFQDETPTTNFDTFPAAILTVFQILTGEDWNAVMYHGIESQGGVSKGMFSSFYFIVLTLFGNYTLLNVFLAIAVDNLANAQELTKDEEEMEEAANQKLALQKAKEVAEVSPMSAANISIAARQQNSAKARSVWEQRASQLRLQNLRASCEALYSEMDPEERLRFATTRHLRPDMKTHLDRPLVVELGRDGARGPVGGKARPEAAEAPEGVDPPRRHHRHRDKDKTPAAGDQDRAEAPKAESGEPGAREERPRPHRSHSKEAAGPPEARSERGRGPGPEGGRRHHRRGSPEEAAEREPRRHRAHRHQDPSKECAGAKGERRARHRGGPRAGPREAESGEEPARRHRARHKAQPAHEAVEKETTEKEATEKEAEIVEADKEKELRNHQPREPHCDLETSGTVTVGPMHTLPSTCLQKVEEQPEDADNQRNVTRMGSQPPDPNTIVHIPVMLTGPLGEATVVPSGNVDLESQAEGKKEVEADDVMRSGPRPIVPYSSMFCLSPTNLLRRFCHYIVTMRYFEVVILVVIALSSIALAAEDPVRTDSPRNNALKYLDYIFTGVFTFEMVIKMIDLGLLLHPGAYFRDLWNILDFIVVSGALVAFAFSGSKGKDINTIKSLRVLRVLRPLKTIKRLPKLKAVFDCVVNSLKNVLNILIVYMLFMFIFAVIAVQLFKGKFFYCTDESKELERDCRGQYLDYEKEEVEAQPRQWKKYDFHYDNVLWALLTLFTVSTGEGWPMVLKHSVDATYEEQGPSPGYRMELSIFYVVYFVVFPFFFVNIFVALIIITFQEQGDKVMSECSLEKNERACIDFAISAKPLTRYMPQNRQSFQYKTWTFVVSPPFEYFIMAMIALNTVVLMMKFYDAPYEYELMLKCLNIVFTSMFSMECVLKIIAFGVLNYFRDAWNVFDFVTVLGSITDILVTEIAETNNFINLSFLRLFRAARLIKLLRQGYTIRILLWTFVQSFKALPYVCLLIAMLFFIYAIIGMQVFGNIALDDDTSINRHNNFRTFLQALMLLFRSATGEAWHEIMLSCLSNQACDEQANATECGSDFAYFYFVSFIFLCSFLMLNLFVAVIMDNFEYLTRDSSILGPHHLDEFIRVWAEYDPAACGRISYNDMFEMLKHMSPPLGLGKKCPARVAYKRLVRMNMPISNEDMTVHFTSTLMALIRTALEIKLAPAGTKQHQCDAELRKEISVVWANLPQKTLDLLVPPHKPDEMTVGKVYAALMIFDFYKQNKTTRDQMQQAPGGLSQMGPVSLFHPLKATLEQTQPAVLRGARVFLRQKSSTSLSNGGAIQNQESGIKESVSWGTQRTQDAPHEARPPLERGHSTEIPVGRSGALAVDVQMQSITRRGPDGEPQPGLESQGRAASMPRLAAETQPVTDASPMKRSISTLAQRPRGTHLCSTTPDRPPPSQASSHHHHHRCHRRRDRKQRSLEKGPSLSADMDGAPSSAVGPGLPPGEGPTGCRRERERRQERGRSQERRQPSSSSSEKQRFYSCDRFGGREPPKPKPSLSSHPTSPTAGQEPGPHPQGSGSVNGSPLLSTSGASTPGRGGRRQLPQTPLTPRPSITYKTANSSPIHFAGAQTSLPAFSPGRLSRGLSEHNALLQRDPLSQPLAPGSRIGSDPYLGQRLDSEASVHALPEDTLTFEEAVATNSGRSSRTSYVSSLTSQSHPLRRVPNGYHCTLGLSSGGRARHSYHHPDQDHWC
T1 sequence (P54284 whole entry partner): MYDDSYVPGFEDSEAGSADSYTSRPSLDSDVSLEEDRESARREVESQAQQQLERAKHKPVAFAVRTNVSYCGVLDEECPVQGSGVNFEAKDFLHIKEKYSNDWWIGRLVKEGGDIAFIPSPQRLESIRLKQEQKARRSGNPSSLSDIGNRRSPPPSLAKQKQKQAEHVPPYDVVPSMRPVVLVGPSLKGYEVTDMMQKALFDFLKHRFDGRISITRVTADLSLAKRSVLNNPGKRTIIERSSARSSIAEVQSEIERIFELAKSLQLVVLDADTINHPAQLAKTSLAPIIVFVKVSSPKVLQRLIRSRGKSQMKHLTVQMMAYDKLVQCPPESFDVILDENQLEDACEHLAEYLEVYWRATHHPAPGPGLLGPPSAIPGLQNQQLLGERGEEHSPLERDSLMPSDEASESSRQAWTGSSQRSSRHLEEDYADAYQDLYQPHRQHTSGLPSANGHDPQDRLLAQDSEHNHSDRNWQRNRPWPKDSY
T1 sequence (P54289 25-946 partner limits assumed): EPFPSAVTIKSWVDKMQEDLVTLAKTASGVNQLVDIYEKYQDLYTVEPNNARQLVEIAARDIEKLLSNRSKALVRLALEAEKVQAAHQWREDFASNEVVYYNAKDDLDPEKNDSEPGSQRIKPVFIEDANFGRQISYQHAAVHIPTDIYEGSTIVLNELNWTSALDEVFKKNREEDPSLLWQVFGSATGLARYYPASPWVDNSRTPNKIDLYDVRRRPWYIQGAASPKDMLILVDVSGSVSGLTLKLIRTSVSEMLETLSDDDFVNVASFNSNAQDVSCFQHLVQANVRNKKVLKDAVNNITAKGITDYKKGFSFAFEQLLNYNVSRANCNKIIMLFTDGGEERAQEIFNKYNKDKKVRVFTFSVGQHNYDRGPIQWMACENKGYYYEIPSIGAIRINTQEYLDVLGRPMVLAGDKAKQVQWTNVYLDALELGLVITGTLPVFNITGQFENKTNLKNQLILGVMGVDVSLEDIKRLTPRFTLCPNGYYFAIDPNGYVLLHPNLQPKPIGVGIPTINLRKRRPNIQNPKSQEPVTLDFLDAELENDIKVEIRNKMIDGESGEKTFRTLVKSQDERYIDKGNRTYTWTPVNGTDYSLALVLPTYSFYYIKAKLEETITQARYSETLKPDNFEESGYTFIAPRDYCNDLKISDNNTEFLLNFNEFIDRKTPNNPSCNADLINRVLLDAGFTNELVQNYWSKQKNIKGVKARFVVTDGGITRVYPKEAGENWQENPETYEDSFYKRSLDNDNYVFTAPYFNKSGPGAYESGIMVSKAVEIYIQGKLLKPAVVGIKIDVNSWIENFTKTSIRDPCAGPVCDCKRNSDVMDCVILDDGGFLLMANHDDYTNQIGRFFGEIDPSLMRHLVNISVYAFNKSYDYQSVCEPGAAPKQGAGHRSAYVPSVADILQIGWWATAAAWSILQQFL
T1 sequence (P54289 947-1103 partner limits assumed): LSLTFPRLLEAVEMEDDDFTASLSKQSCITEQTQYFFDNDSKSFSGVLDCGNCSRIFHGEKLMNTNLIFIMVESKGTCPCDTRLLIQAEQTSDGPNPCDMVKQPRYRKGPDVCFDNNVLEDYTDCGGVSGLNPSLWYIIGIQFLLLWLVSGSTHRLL

IC50	SMILES
≤ 10 µM	C[C@@H]1C(=O)N(C)CCN1Cc1nnnn1-c1ccc(C(F)(F)F)cc1 [Compound 89, (3R)-1,3-Dimethyl-4-({1-[4-(trifluoromethyl)phenyl]-1H-tetrazol-5-yl}methyl)-2-piperazinone[]]
≤ 31.6 µM	O=S1(=O)CCC2CN(Cc3nnnn3-c3cccc(C(F)(F)F)c3)CCN21 (stereo not shown) [Compound 79, 5-({1-[3-(Trifluoromethyl)phenyl]-1H-tetrazol-5-yl}methyl)hexahydro-2H-isothiazolo[2,3-a]pyrazine 1,1-dioxide]
≤ 31.6 µM	CC(C)N1CCN(Cc2nnnn2-c2ccc(C(F)(F)F)cc2)CC1 [Compound 96, 1-(1-Methylethyl)-4-({1-[4-(trifluoromethyl)phenyl]-1H-tetrazol-5-yl}methyl)piperazine hydrochloride]
≤ 31.6 µM	CC(C)N1CCN(Cc2nnnn2-c2cccc(C(F)(F)F)c2)[C@H](C)C1 [Compound 94, (2R)-2-Methyl-4-(1-methylethyl)-1-({1-[3-(trifluoromethyl)phenyl]-1H-tetrazol-5-yl}methyl)piperazine hydrochloride]
≤ 3.16 µM	CC(C)S(=O)(=O)N1CCN(Cc2nnnn2-c2ccc(C#N)c(C(F)(F)F)c2)CC1 [Compound 122, 4-[5-({4-[(1-methylethyl)sulfonyl]-1-piperazinyl}methyl)-1H-tetrazol-1-yl]-2-(trifluoromethyl)benzonitrile]
≤ 10 µM	CC(C)N1CCN(Cc2nnnn2-c2ccc(C(F)(F)F)cc2)[C@H](C)C1=O [Compound 90, (3R)-3-Methyl-1-(1-methylethyl)-4-({1-[4-(trifluoromethyl)phenyl]-1H-tetrazol-5-yl}methyl)-2-piperazinone]
≤ 31.6 µM	C[C@@H]1COCCN1Cc1nnnn1-c1ccc(OC(F)F)cc1 [Compound 54, (3R)-4-[(1-{4-[(Difluoromethyl)oxy]phenyl}-1H-tetrazol-5-yl)methyl]-3-methylmorpholine hydrochloride]
≤ 10 µM	O=C1CCC2CN(Cc3nnnn3-c3ccc(C(F)(F)F)cc3)CCN12 (stereo not shown) [Compound 74, 2-({1-[4-(Trifluoromethyl)phenyl]-1H-tetrazol-5-yl}methyl)hexahydropyrrolo[1,2-a]pyrazin-6(2H)-one]
≤ 31.6 µM	CN1C[C@@H]2C[C@H]1CN2Cc1nnnn1-c1ccc(C(F)(F)F)cc1 [Compound 98, (1S,4S)-2-Methyl-5-({1-[4-(trifluoromethyl)phenyl]-1H-tetrazol-5-yl}methyl)-2,5-diazabicyclo[2.2.1]heptane hydrochloride]
≤ 10 µM	FC(F)(F)c1cc(-n2nnnc2CN2C[C@@H]3C[C@H]2CO3)ccc1Cl [Compound 110, (1S,4S)-5-({1-[4-chloro-3-(trifluoromethyl)phenyl]-1H-tetrazol-5-yl}methyl)-2-oxa-5-azabicyclo[2.2.1]heptane hydrochloride]
≤ 31.6 µM	FC(F)(F)c1cccc(-n2nnnc2CNC2CCCCC2)c1 [Compound 65, N-({1-[3-(Trifluoromethyl)phenyl]-1H-tetrazol-5-yl}methyl)cyclohexanamine hydrochloride]
≤ 31.6 µM	FC(F)(F)c1ccc(-n2nnnc2CN2CCN3CCCC3C2)cc1 (stereo not shown) [Compound 70, 2-({1-[4-(Trifluoromethyl)phenyl]-1H-tetrazol-5-yl}methyl)octahydropyrrolo[1,2-a]pyrazine di-hydrochloride]
≤ 3.16 µM	CCS(=O)(=O)N1CCN(Cc2nnnn2-c2ccc(C#N)c(C(F)(F)F)c2)CC1 [Compound 121, 4-(5-{[4-(ethylsulfonyl)-1-piperazinyl]methyl}-1H-tetrazol-1-yl)-2-(trifluoromethyl)benzonitrile]
≤ 31.6 µM	CCS(=O)(=O)N1CCN(Cc2nnnn2-c2ccc(C#N)cc2)CC1 [Compound 118, 4-(5-{[4-(ethylsulfonyl)-1-piperazinyl]methyl}-1H-tetrazol-1-yl)benzonitrile]
≤ 3.16 µM	CC(C)N1CCC2(CCN(Cc3nnnn3-c3ccc(C#N)c(C(F)(F)F)c3)CC2)C1 [Compound 147, 4-(5-{[2-(1-methylethyl)-2,8-diazaspiro[4.5]dec-8-yl]methyl}-1H-tetrazol-1-yl)-2-(trifluoromethyl)benzonitrile dihydrochloride]
≤ 10 µM	CS(=O)(=O)N1CCN(Cc2nnnn2-c2cccc(C(F)(F)F)c2)CC1 [Compound 72, 1-(Methylsulfonyl)-4-({1-[3-(trifluoromethyl)phenyl]-1H-tetrazol-5-yl}methyl)piperazine]

Further lines, the molecule ahead of its results:

SMILES	IC50
C[C@@H]1COCCN1Cc1nnnn1-c1cccc(C(F)(F)F)c1 [Compound 25, (3R)-3-Methyl-4-({1-[3-(trifluoromethyl)phenyl]-1H-tetrazol-5-yl}methyl)morpholine hydrochloride]	≤ 3.16 µM
N#CC1CCN(Cc2nnnn2-c2cccc(C(F)(F)F)c2)C1 (stereo not shown) [Compound 24, 1-({1-[3-(Trifluoromethyl)phenyl]-1H-tetrazol-5-yl}methyl)-3-pyrrolidinecarbonitrile hydrochloride]	≤ 31.6 µM
CCS(=O)(=O)N1CCN(Cc2nnnn2-c2cccc(C(F)(F)F)c2)CC1 [Compound 48, 1-(Ethylsulfonyl)-4-({1-[3-(trifluoromethyl)phenyl]-1H-tetrazol-5-yl}methyl)piperazine]	≤ 3.16 µM
C[C@@H]1CN(Cc2nnnn2-c2ccc(Cl)cc2)C[C@H](C)O1 [Compound 13, (cis)-4-{[1-(4-Chlorophenyl)-1H-tetrazol-5-yl]methyl}-2,6-dimethylmorpholine]	≤ 31.6 µM
FC(F)(F)c1ccc(-n2nnnc2CCN2CCOCC2)cc1 [Compound 9, 4-(2-{1-[4-(Trifluoromethyl)phenyl]-1H-tetrazol-5-yl}ethyl)morpholine hydrochloride]	≤ 31.6 µM
C[C@@H]1CN(S(C)(=O)=O)C[C@H](C)N1Cc1nnnn1-c1ccc(C#N)c(C(F)(F)F)c1 [Compound 107, 4-(5-{[cis-2,6-Dimethyl-4-(methylsulfonyl)-1-piperazinyl]methyl}-1H-tetrazol-1-yl)-2-(trifluoromethyl)benzonitrile]	≤ 3.16 µM
CC(=O)N1CCN(Cc2nnnn2-c2ccc(C#N)c(C(F)(F)F)c2)CC1 [Compound 102, 4-{5-[(4-acetyl-1-piperazinyl)methyl]-1H-tetrazol-1-yl}-2-(trifluoromethyl)benzonitrile]	≤ 3.16 µM
C[C@@H]1CN(Cc2nnnn2-c2ccc(C#N)c(C(F)(F)F)c2)C[C@H](C)O1 [Compound 30, 4-(5-{[cis-2,6-Dimethyl-4-morpholinyl]methyl}-1 H-tetrazol-1-yl)-2-(trifluoromethyl)benzonitrile]	≤ 10 µM
CCN1CCN(Cc2nnnn2-c2ccc(C(F)(F)F)cc2)[C@H](C)C1=O [Compound 52, (3R)-1-Ethyl-3-methyl-4-({1-[4-(trifluoromethyl)phenyl]-1H-tetrazol-5-yl}methyl)-2-piperazinone]	≤ 31.6 µM
C[C@H]1COCCN1Cc1nnnn1-c1ccc(C(F)(F)F)cc1 [Compound 39, (3S)-3-Methyl-4-({1-[4-(trifluoromethyl)phenyl]-1H-tetrazol-5-yl}methyl)morpholine hydrochloride]	≤ 10 µM
CCS(=O)(=O)N1CCN(Cc2nnnn2-c2ccc(C(F)(F)F)cc2)CC1 [Compound 47, 1-(Ethylsulfonyl)-4-({1-[4-(trifluoromethyl)phenyl]-1H-tetrazol-5-yl}methyl)piperazine]	≤ 10 µM
FC(F)(F)c1cccc(-n2nnnc2CN2CCOCC2)c1 [Compound 19, 4-({1-[3-(Trifluoromethyl)phenyl]-1H-tetrazol-5-yl}methyl)morpholine]	≤ 31.6 µM
